From patent publication US6586440B2, “Pharmaceutical compositions of 5-alkynyl uracil compounds” (SmithKline Beecham Corporation, priority 1990, dated 2003)
Read-outs that look alike come from different tables or passages of the source.

Assays:
[1] = target: T1, Uracil reductase (dihydropyrimidine dehydrogenase, EC 1.3.1.2) (Bos taurus, UniProt Q28007); assay: Determination of uracil reductase inactivation; assay type: biochemical, bovine; conditions: for inhibition at 100 µM: 0.5 h; for relative first-order rate constants for inactivation of enzyme (parenthetical values): fractional activity as a function of time of incubation of 50 μM inactivator with enzyme
T1 construct: (dihydropyrimidine dehydrogenase, EC 1.3.1.2) purified from bovine live; from tissue; host or cells: bovine liver ('bovine live' [sic])
T1 sequence (Q28007 1-1025): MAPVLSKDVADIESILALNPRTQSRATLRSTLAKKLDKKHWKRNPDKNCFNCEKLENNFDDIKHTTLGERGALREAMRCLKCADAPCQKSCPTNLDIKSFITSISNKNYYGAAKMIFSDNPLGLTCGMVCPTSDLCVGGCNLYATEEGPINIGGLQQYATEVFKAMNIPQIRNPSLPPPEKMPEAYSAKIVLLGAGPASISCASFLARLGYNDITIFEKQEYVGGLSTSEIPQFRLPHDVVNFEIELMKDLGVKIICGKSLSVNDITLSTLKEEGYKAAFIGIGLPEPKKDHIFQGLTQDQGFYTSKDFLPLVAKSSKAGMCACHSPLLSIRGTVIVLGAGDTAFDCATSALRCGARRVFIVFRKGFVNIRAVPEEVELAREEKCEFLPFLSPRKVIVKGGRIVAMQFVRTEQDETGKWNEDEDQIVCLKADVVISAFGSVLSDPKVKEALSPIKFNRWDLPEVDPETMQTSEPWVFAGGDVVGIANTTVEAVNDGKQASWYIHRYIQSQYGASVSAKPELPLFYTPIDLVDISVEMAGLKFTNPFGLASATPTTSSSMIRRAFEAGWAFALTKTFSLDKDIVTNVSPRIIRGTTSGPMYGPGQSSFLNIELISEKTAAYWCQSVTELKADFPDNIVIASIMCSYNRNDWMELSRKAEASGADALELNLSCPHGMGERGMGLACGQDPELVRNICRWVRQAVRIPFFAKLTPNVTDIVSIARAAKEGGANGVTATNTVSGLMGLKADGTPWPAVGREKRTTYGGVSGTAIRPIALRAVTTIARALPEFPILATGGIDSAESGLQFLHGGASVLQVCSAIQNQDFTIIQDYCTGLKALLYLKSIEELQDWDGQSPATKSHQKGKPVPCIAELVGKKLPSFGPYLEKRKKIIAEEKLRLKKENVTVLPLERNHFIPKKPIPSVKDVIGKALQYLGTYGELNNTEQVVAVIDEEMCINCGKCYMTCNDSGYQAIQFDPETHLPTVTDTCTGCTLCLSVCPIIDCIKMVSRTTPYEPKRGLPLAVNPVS
Procedure: Determination of Uracil Reductase Inactivation
Uracil reductase (1 μM) (dihydropyrimidine dehydrogenase, EC 1.3.1.2) purified from bovine live was incubated with 100 μM inactivator and 5 mM dithiothreitol (enzyme reductant) at 37° for 30 minutes in 0.05 M Tris-HCL at pH 8.0. The enzyme and inactivator were diluated 100-fold into the assay buffer, which contained 200 μM NADPH, 200 μM thymine and 1 μM dithiothreitol in Tris-HCl at pH 8.0. The velocity of the enzyme was determined spectrophotometrically. These velocities have been corrected for NADPH oxidase activity, which was less than 10% of the rate of thymine-dependent oxidation of NADPH. The % inactivation of the enzyme was equal to 100% minus the percent of enzymatic activity remaining. Enzyme incubated without inhibitor was stable under these conditions. Parenthetical values are the relative first-order rate constants for inactivation of enzyme determined from similar experiments where the fractional activity was measured as a function of the time of incubation of 50 μM inactivator with enzyme.

Male mice = assay: Protection from zidovudine toxicity in mice; assay type: in vivo
Procedure: Male mice were doses p.o. with 1000 mg/kg/day of zidovudine for 30 days either alone, or 1.5 hours after dosing with 2 mg/kg/day of 5-ethynyluracil (5-EU). Other groups of mice (a) were dosed with 2 mg/kg/day of 5-ethynyluracil alone; and (b) served as controls, receiving neither zidovudine nor 5-ethynyluracil. Levels of haematocrit, haemoglobin and red blood cells were determined.

[2] = 1 μM enzyme incubated with 100 μM inactivator and 5 mM dithiothreitol, 37°, 30 minutes, pH 8.0, then diluted 100-fold into assay buffer, read-out: % Inactivation
[3] = male mice, p.o., 30 days, zidovudine 1000 mg/kg/day, 5-EU 2 mg/kg/day, given 1.5 hours before zidovudine in the combination

Row | Structure (SMILES) | inhibition at 100 µM [1, 2] [%] | relative first-order rate constants for inactivation of enzyme (parenthetical values) [1] | other results
1 | C=C(Cl)c1c[nH]c(=O)[nH]c1=O [5-(1-chlorovinyl)uracil] | 100 | (5) | –
2 | O=c1[nH]cc(C=CBr)c(=O)[nH]1 [5-bromovinyluracil] | 93 | – | –
3 | O=c1[nH]cc(C(Cl)=CBr)c(=O)[nH]1 [5-(2-bromo-1-chlorovinyl)uracil] | 68 | – | –
4 | N#Cc1c[nH]c(=O)[nH]c1=O [5-cyanouracil] | 100 | (14) | –
5 | O=c1[nH]cc(C(F)(F)F)c(=O)[nH]1 [5-trifluorouracil] | – | – | % Inactivation ([1]; 1 μM enzyme incubated with 100 μM inactivator and 5 mM dithiothreitol, 37°, 30 minutes, pH 8.0, then diluted 100-fold into assay buffer): 75%
6 | O=c1[nH]cc(Br)c(=O)[nH]1 [5 -bromouracil, 5-bromouracil] | – | – | inhibition at 100 µM ([1]; pH 8, read-out: % Inactivation): 75%
7 | CCCCC#Cc1c[nH]c(=O)[nH]c1=O [5-hex-1-ynyluracil] | 90 | – | –
8 | CC#Cc1c[nH]c(=O)[nH]c1=O [5-propynyluracil, 5-Propynyluracil] | 100 | (8) | melting point: 275 to 280 °C (dec.)
9 | C=Cc1c[nH]c(=O)[nH]c1=O [5-vinyluracil] | 86 | – | –
10 | C#Cc1c[nH]c(=O)[nH]c1=O [5-ethynyluracil, 5-Ethynyluracil] | 100 | (100) | HEMATOCRIT (Male mice; [3]): 45.9%; HEMOGLOBIN (Male mice; [3]): 15.1 g/dL; RED BLOOD CELLS (Male mice; [3]): 9.1 million/µL; prevention of red-blood cell anaemia induced by treatment with zidovudine (Male mice; mice): at least partially prevented
11 | O=c1[nH]cc(I)c(=O)[nH]1 [Example 5-iodouracil, 5-iodouracil] | 100 | (4) | –
12 | O=c1[nH]cc(C#CBr)c(=O)[nH]1 [5-bromoethynyluracil] | 100 | (8) | –
